# In patent US11406640B2, “JAK1 pathway inhibitors for the treatment of chronic lung allograft dysfunction” (Incyte Corporation, priority 2019, dated 2022):
# pIC50: −log10 of the molar value.
# Legend:
# human JAK2 = human JAK2 (Homo sapiens (Human), UniProt O60674); assay: In vitro JAK kinase assay (Example A), JAK2; type: biochemical; details: JAK2/JAK1 IC50 ratio, 1 mM ATP
# Description: The compounds in Table 2 were tested in this assay and shown to have the IC50 values in Table 2.
# human JAK1 = human JAK1 (Homo sapiens, UniProt P23458); assay: In vitro JAK kinase assay (Example A), JAK1; type: biochemical; details: 1 mM ATP
# From the text: In some embodiments, the JAK1 pathway inhibitor is a compound of Table 2, or a pharmaceutically acceptable salt thereof.
# human JAK2, sequence (O60674 828-1132): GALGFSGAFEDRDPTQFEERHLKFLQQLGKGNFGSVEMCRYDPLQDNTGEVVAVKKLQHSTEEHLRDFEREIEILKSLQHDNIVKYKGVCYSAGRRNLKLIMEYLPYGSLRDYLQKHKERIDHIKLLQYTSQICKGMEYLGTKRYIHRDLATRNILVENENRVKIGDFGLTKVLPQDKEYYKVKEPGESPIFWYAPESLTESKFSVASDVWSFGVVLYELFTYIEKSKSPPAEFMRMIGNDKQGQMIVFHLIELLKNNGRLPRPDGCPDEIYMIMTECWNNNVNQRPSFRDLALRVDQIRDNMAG
JAK2/JAK1 (human JAK2),pIC50 (human JAK1),Structure (SMILES)
>10,> 8.00,"N#CCC(CN1CCN(C(=O)c2ccc(C#N)cc2F)CC1)n1cc(-c2ncnc3[nH]ccc23)cn1 (stereo not drawn) [Compound 8, 4-[(4-{3-cyano-2-[4-(7H-pyrrolo[2,3-d]pyrimidin-4-yl)-1H-pyrazol-1-yl]propyl}piperazin-1-yl)carbonyl]-3-fluorobenzonitrile]"
>10,> 8.00,"N#CC[C@]1(n2cc(-c3ncnc4[nH]ccc34)cn2)C[C@H](N2CCC(Oc3cc(CN4CCC[C@@H]4CO)cc(C(F)(F)F)n3)CC2)C1 [Compound 13, {trans-3-(4-{[4-{[(2R)-2-(hydroxymethyl)pyrrolidin-1-yl]methyl}-6-(trifluoromethyl)pyridin-2-yl]oxy}piperidin-1-yl)-1-[4-(7H-pyrrolo[2,3-d]pyrimidin-4-yl)-1H-pyrazol-1-yl]cyclobutyl}acetonitrile]"
>10,> 8.00,"N#CCC1(n2cc(-c3ncnc4[nH]ccc34)cn2)CN(C2CCN(C(=O)Nc3ccc(F)cc3C(F)(F)F)CC2)C1 [Compound 2, 4-{3-(Cyanomethyl)-3-[4-(7H-pyrrolo[2,3-d]pyrimidin-4-yl)-1H-pyrazol-1-yl]azetidin-1-yl}-N-[4-fluoro-2-(trifluoromethyl)phenyl] piperidine-1-carboxamide]"
>10,> 8.00,"N#CCC1(n2cc(-c3ncnc4[nH]ccc34)cn2)CN([C@H]2CC[C@@H](Oc3cc(CN4CC[C@H](O)C4)cc(C(F)(F)F)n3)CC2)C1 [Compound 22, {1-(cis-4-{[4-{[(3S)-3-hydroxypyrrolidin-1-yl]methyl}-6-(trifluoromethyl)pyridin-2-yl]oxy}cyclohexyl)-3-[4-(7H-pyrrolo[2,3-d]pyrimidin-4-yl)-1H-pyrazol-1-yl]azetidin-3-yl}acetonitrile]"
>10,> 8.00,"N#CC[C@]1(n2cc(-c3ncnc4[nH]ccc34)cn2)C[C@H](N2CCC(Oc3cc(CCO)cc(C(F)(F)F)n3)CC2)C1 [Compound 26, {trans-3-(4-{[4-(2-hydroxyethyl)-6-(trifluoromethyl)pyridin-2-yl]oxy}piperidin-1-yl)-1-[4-(7H-pyrrolo[2,3-d]pyrimidin-4-yl)-1H-pyrazol-1-yl]cyclobutyl}acetonitrile]"

# More lines, now with the values behind:
Structure (SMILES),JAK2/JAK1 (human JAK2),pIC50 (human JAK1)
"CCNCc1cc(O[C@H]2CC[C@@H](N3CC(CC#N)(n4cc(-c5ncnc6[nH]ccc56)cn4)C3)CC2)nc(C(F)(F)F)c1 [Compound 19, {1-(cis-4-{[4-[(ethylamino)methyl]-6-(trifluoromethyl)pyridin-2-yl]oxy}cyclohexyl)-3-[4-(7H-pyrrolo[2,3-d]pyrimidin-4-yl)-1H-pyrazol-1-yl]azetidin-3-yl}acetonitrile]",>10,> 8.00
"N#CCC(CN1CCN(C(=O)c2ccc(C#N)cc2F)CC1)n1ccc(-c2ncnc3[nH]ccc23)c1 (stereo not drawn) [Compound 9, 4-[(4-{3-cyano-2-[3-(7H-pyrrolo[2,3-d]pyrimidin-4-yl)-1H-pyrrol-1-yl]propyl}piperazin-1-yl)carbonyl]-3-fluorobenzonitrile]",>10,> 8.00
"N#CCC(C1CCN(c2cccc(Cl)n2)C1)n1cc(-c2ncnc3[nH]ccc23)cn1 (single isomer, unassigned) [Compound 6, 3-[1-(6-chloropyridin-2-yl)pyrrolidin-3-yl]-3-[4-(7H-pyrrolo[2,3-d]pyrimidin-4-yl)-1H-pyrazol-1-yl]propanenitrile]",>10,> 8.00
"C[C@H](NC(=O)c1cc(F)c(N2CC(CC#N)(n3cc(-c4ncnc5[nH]ccc45)cn3)C2)cc1F)C(F)(F)F [Compound 16, 4-{3-(cyanomethyl)-3-[4-(7H-pyrrolo[2,3-d]pyrimidin-4-yl)-1H-pyrazol-1-yl]azetidin-1-yl}-2,5-difluoro-N-[(1S)-2,2,2-trifluoro-1-methylethyl]benzamide]",>10,> 8.00
